Assay results taken from patent publication US8415351B2 (priority 2007, dated 2013).

Key:
[1] = system: genotype 1a-H77 subgenomic replicon cell line; experiment: microbe, parasite or virus in culture; type: cell-based, HCV; conditions: Hepatitis C virus, read-out: EC50 1a
[2] = system: genotype 1b-Con1 subgenomic replicon cell line; experiment: microbe, parasite or virus in culture; type: cell-based, HCV; conditions: Hepatitis C virus, read-out: EC50 1b
[3] = molecular target: T1, HCV polymerase 1A (Δ21 NS5B, H77) (Hepatitis C virus genotype 1a, UniProt P27958); experiment: biochemical; conditions: IC50 1a
T1 construct: 20 to 50 nM Δ21 NS5B
Method in brief: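 Incorporation of 1 μM ^3H-UTP, with 20 μM each of CTP and ATP on 5 nM template RNA, ran 2–4 h at room temperature. Spermine-precipitated product was filtered and scintillation-counted. IC50 came from tight-binding non-linear regression of cpm against inhibitor concentration.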

[4] = molecular target: T2, HCV polymerase 1B (Δ21 NS5B, BK) (Hepatitis C virus genotype 1b, UniProt P26663); experiment: biochemical
T2 construct: 20 to 50 nM Δ21 NS5B
Method in brief: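 Δ21 NS5B (genotype 1b, BK […]) preincubated 15 min RT with inhibitor, 2 mM MnCl2, pH 7.4, 60–125 μM GTP; started with 20 μM CTP/ATP, 1 μM 3H-UTP, 5 nM template RNA, run 2–4 h RT. Spermine-precipitated RNA filter-captured, scintillation counted; IC50 from tight-binding (Morrison) fit.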

T2 sequence (P26663 2420-2989, stated change not applied): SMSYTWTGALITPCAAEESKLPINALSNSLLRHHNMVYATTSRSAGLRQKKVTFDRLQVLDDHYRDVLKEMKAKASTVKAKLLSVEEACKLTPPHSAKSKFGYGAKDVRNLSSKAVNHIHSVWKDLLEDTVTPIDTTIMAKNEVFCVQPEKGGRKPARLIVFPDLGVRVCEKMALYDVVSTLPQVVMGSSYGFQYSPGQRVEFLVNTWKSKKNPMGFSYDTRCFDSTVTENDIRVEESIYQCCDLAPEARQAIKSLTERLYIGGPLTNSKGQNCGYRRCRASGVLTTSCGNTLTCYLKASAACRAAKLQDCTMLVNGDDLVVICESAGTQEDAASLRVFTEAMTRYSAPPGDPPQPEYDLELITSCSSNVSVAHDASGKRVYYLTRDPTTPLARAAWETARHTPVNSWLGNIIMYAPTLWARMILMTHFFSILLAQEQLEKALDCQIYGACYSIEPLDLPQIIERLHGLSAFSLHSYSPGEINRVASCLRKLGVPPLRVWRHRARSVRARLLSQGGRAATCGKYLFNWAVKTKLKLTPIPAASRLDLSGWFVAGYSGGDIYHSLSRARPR
T1 sequence (P27958 2421-2990, stated change not applied): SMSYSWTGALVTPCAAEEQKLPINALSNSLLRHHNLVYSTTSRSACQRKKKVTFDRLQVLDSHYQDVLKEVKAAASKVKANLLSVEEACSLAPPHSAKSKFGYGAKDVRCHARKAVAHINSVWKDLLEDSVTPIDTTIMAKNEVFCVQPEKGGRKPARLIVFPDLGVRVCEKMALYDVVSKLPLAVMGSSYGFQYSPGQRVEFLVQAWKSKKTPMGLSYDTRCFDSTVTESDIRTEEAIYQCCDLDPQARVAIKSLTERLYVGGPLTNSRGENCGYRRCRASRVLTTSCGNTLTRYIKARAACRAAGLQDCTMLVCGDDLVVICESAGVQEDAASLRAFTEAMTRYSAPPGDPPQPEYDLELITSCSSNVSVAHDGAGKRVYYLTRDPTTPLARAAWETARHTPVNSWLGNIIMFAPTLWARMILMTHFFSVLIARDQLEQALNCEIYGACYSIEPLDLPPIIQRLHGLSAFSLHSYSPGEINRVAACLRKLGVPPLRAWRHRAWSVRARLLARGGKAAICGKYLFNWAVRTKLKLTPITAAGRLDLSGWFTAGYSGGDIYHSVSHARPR

Row | Compound | EC50 [1] [nM] | EC50 [2] [nM] | IC50 [3] [nM] | IC50 [4] [nM]
1 | COc1c(C(=O)Nc2ccc(OCC#N)cc2)cc(N2CCC(=O)NC2=O)cc1C(C)(C)C [IA-L3-1.38, 3-tert-butyl-N-(4-(cyanomethoxy)phenyl)-5-(2,4-dioxotetrahydropyrimidin-1(2H)-yl)-2-methoxybenzamide] | > 1000 | > 1000 | > 1000 | 100 to 1000
2 | COc1c(C(=O)Nc2ccc(OCC(N)=O)cc2)cc(N2CCC(=O)NC2=O)cc1C(C)(C)C [IA-L3-1.39, N-(4-(2-amino-2-oxoethoxy)phenyl)-3-tert-butyl-5-(2,4-dioxotetrahydropyrimidin-1(2H)-yl)-2-methoxybenzamide] | > 1000 | > 1000 | > 1000 | 100 to 1000
3 | COc1c(C(=O)Nc2ccc(OS(C)(=O)=O)cc2)cc(N2CCC(=O)NC2=O)cc1C(C)(C)C [IA-L3-1.41, 4-(3-tert-butyl-5-(2,4-dioxotetrahydropyrimidin-1(2H)-yl)-2-methoxybenzamido)phenyl methanesulfonate] | > 1000 | 100 to 1000 | 100 to 1000 | > 1000
4 | COc1c(C(=O)Nc2ccc(NS(C)(=O)=O)cc2)cc(N2CCC(=O)NC2=O)cc1C(C)(C)C [IA-L3-1.51] | 100 to 1000 | 10 to 100 | 10 to 100 | 10 to 100
5 | COc1c(C(=O)Nc2ccc(NS(=O)(=O)CC(C)C)cc2)cc(N2CCC(=O)NC2=O)cc1C(C)(C)C [IA-L3-1.52, 3-tert-butyl-5-(2,4-dioxotetrahydropyrimidin-1(2H)-yl)-2-methoxy-N-(4-(2-methylpropyl-sulfonamido)phenyl)benzamide] | > 1000 | 100 to 1000 | 100 to 1000 | 100 to 1000
6 | COc1c(C(=O)Nc2ccc(NS(=O)(=O)CC(F)(F)F)cc2)cc(N2CCC(=O)NC2=O)cc1C(C)(C)C [IA-L3-1.55, 3-tert-butyl-5-(2,4-dioxotetrahydropyrimidin-1(2H)-yl)-2-methoxy-N-(4-(2,2,2-trifluoro-ethylsulfonamido)phenyl)benzamide] | > 1000 | > 1000 | 100 to 1000 | 100 to 1000
7 | COc1c(C(=O)Nc2ccc(NS(=O)(=O)Cc3ccccc3)cc2)cc(N2CCC(=O)NC2=O)cc1C(C)(C)C [IA-L3-1.57, 3-tert-butyl-5-(2,4-dioxotetrahydropyrimidin-1(2H)-yl)-2-methoxy-N-(4-(phenylmethyl-sulfonamido)phenyl)benzamide] | 100 to 1000 | 100 to 1000 | 10 to 100 | 100 to 1000
8 | COc1c(C(=O)Nc2ccc(NS(=O)(=O)c3c(C)noc3C)cc2)cc(N2CCC(=O)NC2=O)cc1C(C)(C)C [IA-L3-1.59, 3-tert-butyl-N-[4-(3,5-dimethyl-isoxazole-4-sulfonylamino)-phenyl]-5-(2,4-dioxo-tetrahydro-pyrimidin-1-yl)-2-methoxy-benzamide] | > 1000 | > 1000 | 100 to 1000 | 10 to 100
9 | COc1c(C(=O)Nc2ccc(NS(=O)(=O)c3ccccc3)cc2)cc(N2CCC(=O)NC2=O)cc1C(C)(C)C [IA-L3-1.60, 3-tert-butyl-5-(2,4-dioxotetrahydropyrimidin-1(2H)-yl)-2-methoxy-N-(4-(phenylsulfonamido)phenyl)benzamide] | 100 to 1000 | 10 to 100 | 10 to 100 | 10 to 100
10 | COc1c(C(=O)Nc2ccc(N(C)S(C)(=O)=O)cc2)cc(N2CCC(=O)NC2=O)cc1C(C)(C)C [IA-L3-1.62, 3-tert-butyl-5-(2,4-dioxotetrahydropyrimidin-1(2H)-yl)-2-methoxy-N-(4-(N-methylmethylsulfonamido)phenyl)benzamide] | > 1000 | 100 to 1000 | 100 to 1000 | 100 to 1000
11 | COc1ccc(CN(c2ccc(NC(=O)c3cc(N4CCC(=O)NC4=O)cc(C(C)(C)C)c3OC)cc2)S(C)(=O)=O)cc1 [IA-L3-1.67, 3-tert-butyl-5-(2,4-dioxotetrahydropyrimidin-1(2H)-yl)-2-methoxy-N-(4-(N-(4-methoxy-benzyl)methylsulfonamido)phenyl)benzamide] | > 1000 | 100 to 1000 | > 1000 | > 1000
12 | COc1c(C(=O)Nc2ccc(N(C(C)=O)S(C)(=O)=O)cc2)cc(N2CCC(=O)NC2=O)cc1C(C)(C)C [IA-L3-1.69, N-[4-(acetyl-methanesulfonyl-amino)-phenyl]-3-tert-butyl-5-(2,4-dioxo-tetrahydro-pyrimidin-1-yl)-2-methoxy-benzamide] | 100 to 1000 | 10 to 100 | 100 to 1000 | 100 to 1000
13 | CCC(=O)N(c1ccc(NC(=O)c2cc(N3CCC(=O)NC3=O)cc(C(C)(C)C)c2OC)cc1)S(C)(=O)=O [IA-L3-1.70, 3-tert-butyl-5-(2,4-dioxotetrahydropyrimidin-1(2H)-yl)-2-methoxy-N-(4-(N-(methylsulfonyl)propionamido)phenyl)benzamide] | 100 to 1000 | 10 to 100 | > 1000 | > 1000
14 | CCCC(=O)N(c1ccc(NC(=O)c2cc(N3CCC(=O)NC3=O)cc(C(C)(C)C)c2OC)cc1)S(C)(=O)=O [IA-L3-1.71, 3-tert-butyl-5-(2,4-dioxotetrahydropyrimidin-1(2H)-yl)-2-methoxy-N-(4-(N-(methylsulfonyl)butyramido)phenyl)benzamide] | 100 to 1000 | 10 to 100 | 100 to 1000 | > 1000
15 | COc1c(C(=O)Nc2ccc(NS(C)(=O)=O)cc2C)cc(N2CCC(=O)NC2=O)cc1C(C)(C)C [IA-L3-1.83, 3-tert-butyl-5-(2,4-dioxotetrahydropyrimidin-1(2H)-yl)-2-methoxy-N-(2-methyl-4-(methylsulfonamido)phenyl)benzamide] | 100 to 1000 | 100 to 1000 | 10 to 100 | 100 to 1000
16 | COc1cc(NS(C)(=O)=O)ccc1NC(=O)c1cc(N2CCC(=O)NC2=O)cc(C(C)(C)C)c1OC [IA-L3-1.85, 3-tert-butyl-5-(2,4-dioxotetrahydropyrimidin-1(2H)-yl)-2-methoxy-N-(2-methoxy-4-(methylsulfonamido)phenyl)benzamide] | 100 to 1000 | 100 to 1000 | 100 to 1000 | 100 to 1000
17 | CC(C)(C)c1cc(N2CCC(=O)NC2=O)cc(C(=O)Nc2scc(CNS(C)(=O)=O)c2S(N)(=O)=O)c1O [IA-L3-1.89, 3-tert-butyl-5-(2,4-dioxotetrahydropyrimidin-1(2H)-yl)-2-hydroxy-N-(4-(methylsulfonamidomethyl)-3-sulfamoylthiophen-2-yl)benzamide] | 100 to 1000 | 10 to 100 | 10 to 100 | 10 to 100
18 | COc1c(C(=O)Nc2scc(CNS(C)(=O)=O)c2S(N)(=O)=O)cc(N2CCC(=O)NC2=O)cc1C(C)(C)C [IA-L3-1.90, 3-tert-butyl-5-(2,4-dioxotetrahydropyrimidin-1(2H)-yl)-2-methoxy-N-(4-(methylsulfonamidemethyl)-3-sulfamoylthiophen-2-yl)benzamide] | > 1000 | 100 to 1000 | 10 to 100 | 10 to 100
19 | CC(C)(C)c1cc(N2CCC(=O)NC2=O)cc(C(=O)Nc2cc(CNS(C)(=O)=O)cs2)c1O [IA-L3-1.91, 3-tert-butyl-5-(2,4-dioxotetrahydropyrimidin-1(2H)-yl)-2-hydroxy-N-(4-(methylsulfonamidomethyl)thiophen-2-yl)benzamide] | 100 to 1000 | 100 to 1000 | 10 to 100 | 10 to 100
20 | COc1c(C(=O)Nc2cc(CNS(C)(=O)=O)cs2)cc(N2CCC(=O)NC2=O)cc1C(C)(C)C [IA-L3-1.94, 3-tert-butyl-5-(2,4-dioxotetrahydropyrimidin-1(2H)-yl)-2-methoxy-N-(4-(methylsulfonamidomethyl)thiophen-2-yl)benzamide] | > 1000 | 100 to 1000 | 100 to 1000 | 100 to 1000
21 | CN(Cc1csc(NC(=O)c2cc(N3CCC(=O)NC3=O)cc(C(C)(C)C)c2O)c1)S(C)(=O)=O [IA-L3-1.95, 3-tert-butyl-5-(2,4-dioxotetrahydropyrimidin-1(2H)-yl)-2-hydroxy-N-(4-((N-methylmethylsulfonamido)methyl)thiophen-2-yl)benzamide] | > 1000 | > 1000 | 100 to 1000 | 10 to 100
22 | COc1c(C(=O)Nc2cc(CN(C(=O)OC(C)(C)C)S(C)(=O)=O)cs2)cc(N2CCC(=O)NC2=O)cc1C(C)(C)C [IA-L3-1.96, tert-butyl (5-(3-tert-butyl-5-(2,4-dioxotetrahydropyrimidin-1(2H)-yl)-2-methoxybenzamido)thiophen-3-yl)methyl(methylsulfonyl)carbamate] | 100 to 1000 | > 1000 | 100 to 1000 | > 1000
23 | COc1c(C(=O)Nc2cc(CN(C)S(C)(=O)=O)cs2)cc(N2CCC(=O)NC2=O)cc1C(C)(C)C [IA-L3-1.97, 3-tert-butyl-5-(2,4-dioxotetrahydropyrimidin-1(2H)-yl)-2-methoxy-N-(4-((N-methylmethylsulfonamido)methyl)thiophen-2-yl)benzamide] | > 1000 | > 1000 | > 1000 | > 1000
